Results as given in US11560400B2, “Salts of diphosphate phosphoramidate of nucleosides as anticancer compounds” (NuCana plc, priority 2017, dated 2023).
Like-named read-outs stand apart in the source and are kept apart here.

How the values were obtained:
[1] = test system: RPMI-8226; experiment: CellTiterGlo cell viability assay, RPMI-8226; assay type: cell-based, Human; conditions: Homo sapiens, RPMI-8226, 72 h; for EC50: read-out: Ab EC50
In short: (§1)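 Duplicate wells received test compound across nine 3.16-fold steps (198 μM to 19.8 nM final) for about 3 days under standard culture. Viability was read by CTG luminescence, and absolute EC50 plus inhibition at highest dose derived.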

[2] = test system: MOLT-4; experiment: CellTiterGlo cell viability assay, MOLT-4; assay type: cell-based; conditions: MOLT-4, 72 h; for EC50: read-out: Ab EC50
In short: as §1

[3] = test system: HT29; experiment: CellTiterGlo cell viability assay, HT29; assay type: cell-based; conditions: Homo sapiens, HT-29, 72 h, HT29, 72 h; for EC50: read-out: Ab EC50
In short: as §1

[4] = test system: KG-1; experiment: CellTiterGlo cell viability assay, KG-1; assay type: cell-based; conditions: Homo sapiens, KG-1, 72 h
In short: as §1

[5] = test system: MCF-7; experiment: CellTiterGlo cell viability assay, MCF-7; assay type: cell-based; conditions: Homo sapiens, MCF7, 72 h, MCF-7, 72 h; for EC50: read-out: Ab EC50
In short: as §1

[6] = test system: HepG2; experiment: CellTiterGlo cell viability assay, HepG2; assay type: cell-based; conditions: Homo sapiens, HepG2, 72 h; for EC50: read-out: Ab EC50
In short: as §1

[7] = test system: RL; experiment: CellTiterGlo cell viability assay, RL; assay type: cell-based; conditions: Homo sapiens, 72 h; for EC50: read-out: Ab EC50
In short: as §1

[8] = test system: OVCAR 3; experiment: CellTiterGlo cell viability assay, OVCAR 3; assay type: cell-based; conditions: for EC50: OVCAR 3, 72 h, read-out: Ab EC50
In short: as §1

[9] = test system: HL-60; experiment: CellTiterGlo cell viability assay, HL-60; assay type: cell-based; conditions: HL-60, 72 h; for EC50: read-out: Ab EC50
In short: as §1

[10] = test system: KG1a LSCs and bulk tumour cells; experiment: γH2A.X phosphorylation assay (DNA damage) in purified LSCs and bulk tumour cells; assay type: cell-based; conditions: 2-hour exposure, hypoxic conditions (5% O2), in words
Description: KG1a cells were grown under hypoxic conditions for 7 days in order to generate 10^7 cells and increase the percentage of cells expressing an LSC phenotype. Subsequently, Lin^−/CD34^+/CD38^−/CD123^+ LSCs and Lin^−/CD34^+/CD38^+/CD123^+ ‘bulk’ tumour cells were purified by high speed cell sorting using a FACS Melody cell sorter (Becton Dickenson) and were placed back into hypoxic cell culture conditions prior to the addition of clofarabine or clofarabine diphosphate phosphoramidates.
Phosphorylation of the histone variant γH2A.X occurs as a rapid response to double strand DNA breaks. The γH2A.X Phosphorylation Assay Kit (Flow cytometry) is a cell-based assay formatted for flow cytometric detection of levels of phosphorylated Histone γH2A.X (Merck, UK). LSC and ‘bulk tumour’ cells were cultured in 96-well plates in the presence of clofarabine or clofarabine diphosphate phosphoramidates. After 2 h of exposure to drug, the cells were harvested by centrifugation and then fixed and permeabilised in preparation for staining and detection. Histone γH2A.X phosphorylated at serine 139 is detected by the addition of the anti-phospho-Histone γH2A.X conjugated to APC. Cells were then run on a flow cytometer to quantitate the number of cells staining positive for phosphorylated Histone γH2A.X.

[11] = in vitro; conditions: human, pooled cryopreserved hepatocytes, pH 7.3
[12] = percentage inhibition at the highest concentration tested, read-out: Top Inh
[13] = Homo sapiens, percentage inhibition at the highest concentration tested, read-out: Top Inh
[14] = percentage inhibition at the highest concentration tested, read-out: Top Inhibit

With `Nc1nc(Cl)nc2c1ncn2[C@@H]1O[C@H](CO)[C@@H](O)[C@@H]1F` [Clofarabine, reference compound] the EC50 ([1]; Table 3 classes) was 5000 to 10000 nM, the EC50 ([1]; Table 4 classes) was greater than 10000 nM and the inhibition at 198 µM [1, 12] was 89%. It also gave an inhibition at 198 µM [2, 13] of 84.1%, an EC50 ([2]; Homo sapiens, Table 3 classes) of less than 200 nM and an EC50 ([2]; Table 4 classes) of less than 200 nM. The EC50 ([3]; Table 3 classes) was 200 to 2000 nM, the EC50 ([3]; Table 4 classes) was 200 to 1000 nM and the inhibition at 198 µM [3, 14] was 64%. For the same molecule, the EC50 ([4]; Table 4 classes, read-out: Ab EC50) was less than 200 nM, the inhibition at 198 µM [4, 14] was 93% and the EC50 ([5]; Table 3 classes) was 200 to 2000 nM. The EC50 ([5]; Table 4 classes) was 200 to 1000 nM, the inhibition at 198 µM [5, 14] was 55% and the EC50 ([6]; Table 3 classes) was 2000 to 5000 nM. The EC50 ([6]; Table 4 classes) was 1000 to 5000 nM, the inhibition at 198 µM [6, 14] was 64% and the EC50 ([7]; Table 3 classes) was 200 to 2000 nM. The EC50 ([7]; Table 4 classes) was 200 to 1000 nM, the inhibition at 198 µM [7, 12] was 77% and the inhibition at 198 µM ([8]; Homo sapiens, OVCAR-3, 72 h, percentage inhibition at the highest concentration tested, read-out: Top Inhibit) was 48%. For the same molecule, the EC50 ([8]; Homo sapiens, Table 3 classes) was greater than 10000 nM, the EC50 ([8]; Table 4 classes) was greater than 10000 nM and the EC50 ([9]; Table 4 classes) was less than 200 nM. For the same molecule, the EC50 ([9]; Homo sapiens, Table 3 classes) was less than 200 nM, the inhibition at 198 µM [9, 13] was 97% and the “DNA damage in LSCs compared with bulk tumour cells (γH2A.X phosphorylation)” value [10] was “level of DNA damage in the LSCs was significantly lower than the bulk tumour cells”. The half-life at 1 μM [11] was greater than 2 h.
